pEC50: −log10 of the molar value. Read-outs that look alike come from different tables or passages of the source.
Tests used:
alpha 2A receptor = target: T1, alpha 2A receptor (Homo sapiens, UniProt P08913); assay: biochemical; settings: for Relative Efficacy: efficacy relative to the full agonist brimonidine (1.0)
T1 sequence (P08913 1-465): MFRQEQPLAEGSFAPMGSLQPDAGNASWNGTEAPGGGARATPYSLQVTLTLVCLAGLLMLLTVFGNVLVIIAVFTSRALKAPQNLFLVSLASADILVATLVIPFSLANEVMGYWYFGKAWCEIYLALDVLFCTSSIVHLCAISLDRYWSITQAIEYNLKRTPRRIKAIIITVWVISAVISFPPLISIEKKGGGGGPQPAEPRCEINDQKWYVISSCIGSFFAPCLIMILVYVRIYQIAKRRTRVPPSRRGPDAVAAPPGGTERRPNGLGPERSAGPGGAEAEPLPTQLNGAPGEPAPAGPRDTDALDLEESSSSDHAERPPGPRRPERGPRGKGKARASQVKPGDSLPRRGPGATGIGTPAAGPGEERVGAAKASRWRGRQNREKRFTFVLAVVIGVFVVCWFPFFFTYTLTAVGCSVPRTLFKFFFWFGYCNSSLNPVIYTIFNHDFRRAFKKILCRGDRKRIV
Method: In the GTPase assay, receptor activation results in dissociation of GDP and binding of the nonhydrolyzable [^35S]GTPyS to receptor-coupled G-proteins. The extent of binding is a measure of receptor activation. Membranes were prepared from HEK cells transiently expressing the alpha 2A receptor and the three subunits of the Gi G-protein. Membranes were thawed and resuspended using a Polytron disrupter in 4° C. membrane buffer and quantified via Bradford assay. The quantified protein was then added to reaction buffer [50 mM Tris-HCl, 100 mM NaCl, 5 mM MgCl2, 1 mM DTT, 1 mM EDTA, 3 μM propranolol, and 0.1 mM AMP; pH 7.4 and 4° C. to achieve a 100 μg/ml concentration, allowed to incubate for 15 minutes, and then incubated for an additional 10 minutes in the presence of 6 μM GDP. The above mixture was then aliquoted, 50 μL/well, in a 96 well plate, combined with an equal volume of test compound dissolved in assay buffer [50 mM Tris-HCl, 100 mM NaCl, 5 mM MgCl2, 1 mM EDTA, and 1 mM DTT, pH 7.4 and 4° C.], and allowed to incubate for 5 minutes. Immediately following the above incubation, the mixture was combined with 50 μL of 1.5 nM [^35S]GTPyS in assay buffer and shaken covered for 60 minutes at 25° C. Assays were terminated by vacuum filtration over GF/B filters blocked with 0.5% BSA. Filters were then washed with 4° C. wash buffer [50 mM Tris-HCl, 100 mM NaCl, and 5 mM MgCl2, pH 7.5. The incorporated [^35S]GTPyS was determined using a Microbeta 1450B liquid scintillation counter after the plates had dried overnight.

α2A-adrenergic receptor = target: T2, α2A-adrenergic receptor (Homo sapiens, UniProt P08913); settings: for down regulation of alpha 2A receptor (receptor density): binding studies, result in words; for Percent of B max Decrease: 24 hours, HEK 293T cells stably transfected with α2A-adrenergic receptor
T2 sequence (P08913 1-465): T1 sequence (P08913 1-465)
Method: Human embryonic kidney (HEK) 293T cells stably transfected with the α2A-adrenergic receptor were grown to 50-60% confluency on T-175 culture flasks in DMEM (Gibco, cat. #11995), 10% FBS (Gibco, cat. #16140), 0.25 μg/ml puromycin (Sigma, cat. # P-8833), and 1% antibiotic-antimycotic (Gibco, cat. #15240) maintained at 37° C. and 5% CO2. […] The cells were then washed with room temperature Dulbecco's phosphate buffered saline (DPBS; Gibco, cat. #14190).
Cells were harvested with 4° C. Tris-EDTA buffer [50 mM Tris-HCl, 5 mM EDTA; pH 7.4] and centrifuged at 5,000×g for 5 minutes at 4° C. Membrane preparation was conducted by resuspending the cell pellets in 4° C. Tris-EDTA buffer and lysed with a Polytron disrupter two times (setting 7, 5 seconds each). The lysed suspension was then centrifuged at […] for 32 minutes at 4° C. After decanting the supernatant, the pelleted material was further lysed in 4° C. Tris buffer [50 mM Tris-HCl; pH 8.0] using the Polytron disrupter (setting 4, 5 seconds). Membranes were then aliquoted, pelleted at […] for 32 minutes at 4° C., and stored at −80° C. until use.
Membranes were thawed and resuspended using a Polytron disrupter in 4° C. HBSS-HEPES buffer [1 part 1M HEPES: 5 parts 10× Hank's Balanced Salt Solution: 43.8 parts H2O; pH 7.4 with KOH) and quantified via Bradford assay. The quantified protein was further diluted with HBSS-HEPES buffer to achieve a 100 μg/ml concentration. Membrane suspension was plated in a 96-well plate at 200 IμLs/well±10 μM phentolamine HCl (Sigma, cat. # P-7547) and [Methyl-^3H] Rauwolscine (15 nM to 0.05 nM; PerkinElmer, cat. # NET722250UC). The assay plate was slowly shaken and incubated at 25° C. for ninety minutes. Immediately following the above incubation, the assays were terminated by vacuum filtration over GF/B filters. Filters were then washed with 4° C. HBSS-HEPES buffer. The incorporated [Methyl-^3H] Rauwolscine was determined using a Microbeta 1450B liquid scintillation counter after the plates had dried overnight.

[1] = tested on: blue light model of retinal degeneration in rats; assay: blue light model of retinal degeneration, retinal thickness by OCT; type: in vivo, Sprague Dawley rats; settings: 1 mg/kg/day subcutaneous infusion from two days before 4 hours blue light, OCT at 7 days post exposure, versus saline
Method: (§1) Drugs were administered continuously with subcutaneous infusion pumps at a dose of 1 mg/kg/day starting two days before blue light exposure. These concentrations result in drug levels in the retina of 2.3 ng/g OH-dexmedetomidine which are sufficient for pharmacological activity. Twenty 4-month old male Sprague Dawley rats (body weight 470-550 g) were used in this study. The animals were exposed to room light on a 12 hour light/12 hour dark cycle before the experiment. All animals were dark adapted overnight (16-20 hours) before blue light. Under the intensity of 6100-6500 lux, rats were exposed to blue light for 4 hours. After the blue light, rats were placed in the dark for another 3 days before returning to normal 12 hour light/12 hour dark. Ocular Coherence Tomography (OCT) measurement was performed at 7 days post blue light exposure. […] Histology studies have shown that the reduction in retinal thickness is attributable to loss of photoreceptors.

[2] = drug level in the retina under continuous subcutaneous infusion; type: in vivo, Sprague Dawley rats; settings: rats, continuous subcutaneous infusion pumps, 1 mg/kg/day
Method: as §1

Row | Structure (SMILES) | pEC50 (alpha 2A receptor) | Relative Efficacy (alpha 2A receptor) | down regulation of alpha 2A receptor (receptor density) (α2A-adrenergic receptor) | Percent of B max Decrease (α2A-adrenergic receptor; compound concentration 1 μM) [%] | Percent of B max Decrease (α2A-adrenergic receptor; compound concentration 10 μM) [%] | damage caused by blue light (reduction of retinal thickness measured by OCT) [1] | damage caused by blue light (reduction of retinal thickness measured by OCT) ([1]; listed as (S) [3-(1-(1H-imidazol-4-yl)ethyl)-2-methylphenyl] methanol) | drug levels in the retina [2] [ng/g]
1 | Cc1c(CO)cccc1C(C)c1c[nH]cn1 (racemic) [OH-medetomidine, [3-(1-(1H-imidazol-4-yl)ethyl)-2-methylphenyl] methanol, reference compound] | 7.70 | 0.26 | – | – | – | – | – | –
2 | Cc1c(CO)cccc1[C@H](C)c1c[nH]cn1 [OH-dexmedetomidine, (S) [3-(1-(1H-imidazol-4-yl)ethyl)-2-methylphenyl] methanol] | 7.35 | 0.65 | very little down regulation of alpha 2A receptor | −25 | −14 | significantly reduced the damage caused by blue light | reduced the damage caused by blue light | 2.3
3 | Brc1c(N=C2NCCN2)ccc2nccnc12 [brimonidine, (5-bromo-quinoxalin-6-yl)-imidazolidin-2-ylidene-amine, reference compound] | – | – | strong reduction in the alpha 2A receptor density | −45 | −60 | – | – | –
